From US6399654B1, “Biflavanoids and derivatives thereof as antiviral agents” (priority 1995, dated 2002)
In brackets after ≈: the same amount, converted by molar mass. Where two headings read alike, the source gives them in different places.

Assays:
[1] = system: Parainfluenza Type 3 Virus; assay: organism not typed; type: cell-based; conditions: MA104; Parainfluenza Type 3 Virus; read-out: CPI Inhibition EC50
[2] = system: VZV; assay: VZV plaque reduction assay in HFF cells; conditions: for VZV SI (CC50/EC50): HFF Cells; for EC50: Human alphaherpesvirus 3, HFF, read-out: VZV Plaque Reduction EC50
[3] = in vitro; conditions: dog
[4] = system: Hepatitis B Virus (HBV); assay: Inhibition of HBV replication in 2.2.15 cells, extracellular (virion) HBV DNA; conditions: for anti-HBV activity (in words): 2.2.15 cells; for EC50 / EC90: Hepatitis B virus; for SI (CC50/EC90), HBV Virion: selective index;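 on all read-outs here: extracellular virion HBV DNA in culture medium measured by slot blot hybridization with a 32P-labeled HBV probe, quantified against HBV DNA standards, after 9 days of daily dosing, compared with day 0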
Protocol: Test compounds were added daily for a nine continuous day period; the culture medium was collected and stored for analysis of extracellular (virion) HBV DNA after 0, 3, 6, and 9 days of treatment. The treated cells were lysed 24 hours following day 9 of treatment for the analysis of intracellular HBV genomic forms. The overall levels of HBV DNA (both extracellular and intracellular DNA) and the relative rate of HBV replication (intracellular DNA) were analyzed quantitatively. The analysis was performed using blot hybridization techniques and [^32P]-labeled HBV-specific probes. The HBV DNA levels were measured by comparison to known amounts of HBV DNA standards applied to every nitrocellulose membrane (gel or slot blot). An AMBIS beta scanner, which measures the radioactive decay of the hybridized probes directly from the nitrocellulose membranes, was used for the quantitative analysis. Standard curves, generated by multiple analyses, were used to correlate CPM measurements made by the beta scanner with relative levels of target HBV DNA. The levels of HBV virion DNA released into the culture medium were analyzed by a slot blot hybridization procedure. HBV DNA levels were then compared to those at day 0 to determine the effect of the test compound. A known positive drug was evaluated in parallel with test compounds in each test.
Determination of therapeutic concentrations (EC50 and EC90) and toxicity concentrations (IC50) were determined as previously described (90). Stock solutions of text drugs were prepared in DMSO. Culture medium was changed daily and analyzed for extracellular HBV DNA after nine days of continuous drug exposure. Extracellular HBV DNA was extracted from the culture media and analyzed by a slot blot hydridization technique, using a ^32P-labeled Eco RI HBV DNA fragment, as previously described (91), and quantitated via comparison to HBV standards on a nitrocellulose filter, using an AMBIS beta scanner. Toxicity was determined by measuring inhibition of neutral red dye uptake. […] Effective concentration values for individual agents are the mean of six cultures per concentration point. Toxicity values are the mean of three cultures per concentration point.

[5] = system: HSV-2; assay: HSV-2 CPE inhibition in HFF cells; conditions: for HSV-2 SI (CC50/EC50): HFF Cells; for EC50: Human alphaherpesvirus 2, HFF, read-out: HSV-2 CPE Inhibition EC50
[6] = system: Influenza A (H1N1) Texas/36/91; assay: microbe, parasite or virus in culture; type: cell-based, influenza A virus; conditions: Influenza A virus, MDCK; Influenza A (H1N1) Texas/36/91; read-out: Neutral Red EC50
[7] = system: Parainfluenza Type 3 Virus; assay: organism not typed; type: cell-based; conditions: MA104, read-out: Neutral Red EC50
[8] = biological target: T1, HIV-1 RT (Human immunodeficiency virus type 1 group M subtype B, UniProt P03366); assay: Anti-HIV-1 RT assay (recombinant enzyme); type: biochemical; conditions: for inhibition at 200 µg/mL: read-out: Anti-HIV-1 RT % Inhibition at 200 μg/ml; for Anti-HIV-1 RT IC50: values in parentheses or in words
T1 construct: made in house; host or cells: Escherichia coli

[9] = in vitro; conditions: African green monkey
[10] = Cytotoxicity by neutral red dye uptake, MA-104 cells; conditions: African green monkey, Neutral Red IC50 (cytotoxic)
[11] = Cytotoxicity (CC50) in HFF cells in the herpes virus tests; conditions: human
[12] = system: HFF Cells; assay: as above; conditions: HFF Cells, HSV-2 test
[13] = in vitro; conditions: dog, Neutral Red IC50 (cytotoxic)
[14] = system: Respiratory Syncytial Virus; assay: microbe, parasite or virus in culture; type: cell-based; conditions: human respiratory syncytial virus, MA104; read-out: CPE Inhibition EC50
[15] = system: Influenza B Panama/45/90; assay: microbe, parasite or virus in culture; type: cell-based; conditions: Influenza B virus, MDCK; Influenza B Panama/45/90; read-out: CPE Inhibition EC50
[16] = system: Influenza A (H3N2) Beijing/32/92; assay: microbe, parasite or virus in culture; type: cell-based, influenza A virus; conditions: Influenza A virus, MDCK; Influenza A (H3N2) Beijing/32/92; read-out: Neutral Red EC50
[17] = in vitro; conditions: African green monkey; remark: listed apart in the source
[18] = Cytotoxicity by neutral red dye uptake, BSC-1 cells; conditions: African green monkey
[19] = system: Adenovirus Type 5; assay: Adenovirus type 5 neutral red dye uptake in A549 cells; type: cell-based; conditions: Human mastadenovirus C, A549; Adenovirus Type 5; read-out: Neutral Red EC50
[20] = system: HSV-1; assay: HSV-1 CPE inhibition in HFF cells; conditions: for HSV-1 SI (CC50/EC50): HFF Cells; for EC50: Human alphaherpesvirus 1, HFF, read-out: HSV-1 CPE Inhibition EC50
[21] = Cytotoxicity by neutral red dye uptake, A549 cells; conditions: human
[22] = system: Respiratory Syncytial Virus; assay: microbe, parasite or virus in culture; type: cell-based; conditions: human respiratory syncytial virus, MA104; read-out: Neutral Red EC50
[23] = system: HCMV; assay: HCMV CPE inhibition in HFF cells; conditions: for HCMV SI (CC50/EC50): HFF Cells; for EC50: Human betaherpesvirus 5, HFF, read-out: HCMV CPE Inhibition EC50
[24] = system: Influenza A (H3N2) Beijing/32/92; assay: microbe, parasite or virus in culture; type: cell-based, influenza A virus; conditions: Influenza A virus, MDCK; Influenza A (H3N2) Beijing/32/92; read-out: CPE Inhibition EC50
[25] = system: Measles Virus; assay: Measles virus neutral red dye uptake in BSC-1 cells; type: cell-based; conditions: Measles morbillivirus, BSC-1
[26] = system: Influenza A (H1N1) Texas/36/91; assay: microbe, parasite or virus in culture; type: cell-based, influenza A virus; conditions: Influenza A virus, MDCK; Influenza A (H1N1) Texas/36/91; read-out: CPE Inhibition EC50
[27] = system: Measles Virus; assay: microbe, parasite or virus in culture; type: cell-based; conditions: for EC50: Measles morbillivirus, BSC-1, Measles Virus, read-out: CPI Inhibition EC50
[28] = system: Adenovirus Type 5; assay: microbe, parasite or virus in culture; type: cell-based; conditions: Human mastadenovirus C, A549, read-out: CPE Inhibition EC50
[29] = in vitro; conditions: human
[30] = system: Influenza B Panama/45/90; assay: microbe, parasite or virus in culture; type: cell-based; conditions: Influenza B virus, MDCK, read-out: Neutral Red EC50
[31] = system: 2.2.15 cells; assay: HBV cytotoxicity assay, neutral red dye uptake in 2.2.15 cells; type: cell-based; conditions: Homo sapiens, read-out: IC50 (toxicity, neutral red dye uptake)
Protocol: The toxicity of the test compounds in cultures of 2.2.15 cells, grown to confluence in 96-well flat-bottomed tissue culture plates and treated with compounds as described above, were assayed at four concentrations each in triplicate cultures, in 3 to 10-fold steps. Untreated control cultures were maintained on each plate. On each plate, wells containing no cells were used to correct for light scattering.
Stock solutions of text drugs were prepared in DMSO.

[32] = CPE Inhibition IC50 (50% cell inhibitory (cytotoxic) concentration), Influenza A (H1N1) test
[33] = CPE Inhibition IC50 (cytotoxic), Influenza A (H3N2) test
[34] = CPE Inhibition IC50 (cytotoxic), Influenza B test
[35] = 216 h, read-out: EC50 (50% effective dose), HBV Virion, 2.2.15 cells, extracellular (virion) HBV DNA, 9 days treatment
[36] = 216 h, read-out: EC90 (90% effective dose), HBV Virion, 2.2.15 cells, extracellular (virion) HBV DNA, 9 days treatment
[37] = CPE Inhibition IC50 (cytotoxic), Respiratory Syncytial Virus test
[38] = CPI Inhibition IC50 (cytotoxic), Parainfluenza Type 3 Virus test
[39] = Parainfluenza Type 3 Virus test
[40] = Respiratory Syncytial Virus test

With `O=C1CC(c2ccc(O)cc2)Oc2cc(O)c(-c3c(O)cc(O)c4c3OC(c3ccc(O)cc3)CC4=O)c(O)c21` (centres unmarked) [Rhusflavanone (9), rhusflavanone] the EC50 [1] was greater than 100 µg/mL, the “VZV SI (CC50/EC50)” value [2] was less than 4 and the EC50 [2] was greater than 4 µg/mL. The IC50 [3, 32] was 8.2 µg/mL (≈ 15.1 µM), the IC50 [3, 33] was 24 µg/mL (≈ 44.2 µM) and the IC50 [3, 34] was 38 µg/mL (≈ 70 µM). For the same compound, the “anti-HBV activity (in words)” value ([4]; listed as rhusflavanone) was “inactive”, the “anti-HBV activity (in words)” value ([4]; listed as rhusflavanone (9)) was “little or no anti-HBV activity” and the EC50 [4, 35] was greater than 100000 nM. For the same compound, the EC90 [4, 36] was greater than 100000 nM, the “activity against HSV-2 (in words)” value [5] was “active” and the “HSV-2 SI (CC50/EC50)” value [5] was greater than 6.4. The EC50 [5] was 15.7 µg/mL (≈ 28.9 µM), the EC50 [6] was 24 µg/mL (≈ 44.2 µM) and the EC50 [7] was 85 µg/mL (≈ 157 µM). For the same compound, the “activity against HIV-1 RT (in words)” value [8] was “completely inactive”, the inhibition at 200 µg/mL [8] was 14.1% and the “Anti-HIV-1 RT IC50” value [8] was “Inactive”. It also gave an IC50 [9, 37] of 18 µg/mL (≈ 33.2 µM), an IC50 [9, 38] of 47 µg/mL (≈ 86.6 µM) and an IC50 [10, 39] of 30 µg/mL (≈ 55.3 µM). It also gave an IC50 [10, 40] of 20 µg/mL (≈ 36.9 µM), a CC50 at 3 days [11] greater than 100 µg/mL and a CC50 at 10 days [11] of 16 µg/mL (≈ 29.5 µM). The CC50 at 14 days [11] was 13.7 µg/mL (≈ 25.3 µM), the “HSV-2 CPE Inhibition CC50” value [12] was greater than 100 µg/mL and the IC50 ([13]; Influenza A (H1N1) test) was 26 µg/mL (≈ 47.9 µM). The IC50 ([13]; Influenza A (H3N2) test) was 31 µg/mL (≈ 57.1 µM), the EC50 [14] was greater than 10 µg/mL and the EC50 [15] was 4.1 µg/mL (≈ 7.56 µM). For the same compound, the EC50 [16] was 31 µg/mL (≈ 57.1 µM), the IC50 [17] was 21 µg/mL (≈ 38.7 µM) and the IC50 [18] was 40 µg/mL (≈ 73.7 µM). For the same compound, the EC50 [19] was 33 µg/mL (≈ 60.8 µM), the “HSV-1 SI (CC50/EC50)” value [20] was 0 and the EC50 [20] was greater than 100 µg/mL. The IC50 [21] was 15 µg/mL (≈ 27.6 µM), the EC50 [22] was 27 µg/mL (≈ 49.8 µM) and the “HCMV SI (CC50/EC50)” value [23] was less than 3.4. The EC50 [23] was greater than 4 µg/mL, the EC50 [24] was greater than 32 µg/mL and the EC50 [25] was 5 µg/mL (≈ 9.22 µM). For the same compound, the EC50 [26] was greater than 10 µg/mL, the “activity against measles virus (in words)” value [27] was “some slight activity” and the EC50 [27] was 14 µg/mL (≈ 25.8 µM). It also gave an EC50 [28] of 56 µg/mL (≈ 103 µM) and an IC50 [29] of 47 µg/mL (≈ 86.6 µM).

For `COc1ccc(-c2cc(=O)c3c(OC)cc(OC)c(C4C(=O)c5c(OC)cc(OC)cc5OC4c4ccc(OC)cc4)c3o2)cc1` (centres unmarked) [Volkensiflavone hexamethyl ether (6), volkensiflavone hexamethyl ether], the “VZV SI (CC50/EC50)” value [2] was 3.4, the EC50 [2] was 3.3 µg/mL (≈ 5.28 µM) and the IC50 [3, 32] was less than 24 µg/mL. For the same compound, the IC50 [3, 33] was roughly 100 µg/mL (≈ 160 µM), the IC50 [3, 34] was roughly 100 µg/mL (≈ 160 µM) and the “anti-HBV activity (in words)” value [4] was “moderate anti-HBV activity”. The EC50 [4, 35] was 11000 nM, the EC90 [4, 36] was 108000 nM and the “SI (CC50/EC90), HBV Virion” value [4] was 1.3. The EC50 [30] was less than 20 µg/mL, the “HSV-2 SI (CC50/EC50)” value [5] was 0 and the EC50 [5] was greater than 100 µg/mL. The EC50 [6] was roughly 100 µg/mL (≈ 160 µM), the EC50 [7] was greater than 32 µg/mL and the “activity against HIV-1 RT (in words)” value [8] was “inactive”. The inhibition at 200 µg/mL [8] was 0%, the “Anti-HIV-1 RT IC50” value [8] was “Inactive” and the IC50 [9, 37] was roughly 30 µg/mL (≈ 48 µM). The IC50 [9, 38] was roughly 15 µg/mL (≈ 24 µM), the IC50 [10, 39] was roughly 33 µg/mL (≈ 52.8 µM) and the IC50 [10, 40] was roughly 59 µg/mL (≈ 94.5 µM). The CC50 at 3 days [11] was greater than 100 µg/mL, the CC50 at 10 days [11] was 11.1 µg/mL (≈ 17.8 µM) and the CC50 at 14 days [11] was greater than 100 µg/mL. The “HSV-2 CPE Inhibition CC50” value [12] was greater than 100 µg/mL, the IC50 ([13]; Influenza A (H1N1) test) was roughly 100 µg/mL (≈ 160 µM) and the IC50 ([13]; Influenza A (H3N2) test) was roughly 100 µg/mL (≈ 160 µM). For the same compound, the IC50 ([13]; Influenza B test) was roughly 100 µg/mL (≈ 160 µM), the EC50 [14] was roughly 18 µg/mL (≈ 28.8 µM) and the EC50 [15] was 2.6 µg/mL (≈ 4.16 µM). It also gave an EC50 [16] of roughly 100 µg/mL (≈ 160 µM), an IC50 [17] of less than 60 µg/mL and an IC50 [18] of less than 13 µg/mL. The EC50 [19] was greater than 100 µg/mL, the “HSV-1 SI (CC50/EC50)” value [20] was 0 and the EC50 [20] was greater than 100 µg/mL. For the same compound, the IC50 [21] was 50 µg/mL (≈ 80 µM), the EC50 [22] was greater than 32 µg/mL and the “HCMV SI (CC50/EC50)” value [23] was 0. For the same compound, the EC50 [23] was greater than 100 µg/mL, the EC50 [24] was roughly 100 µg/mL (≈ 160 µM) and the EC50 [25] was less than 7 µg/mL. It also gave an EC50 [26] of roughly 100 µg/mL (≈ 160 µM), an EC50 [27] of less than 70 µg/mL and an IC50 [29] of 47 µg/mL (≈ 75.2 µM).

For `Nc1ccn([C@@H]2CS[C@H](CO)O2)c(=O)n1` [Lamivudine (3TC), lamivudine, reference compound], the EC50 [4, 35] was 38 nM, the EC90 [4, 36] was 160 nM and the EC50 ([4]; read-out: EC50, concentration necessary to decrease HBV DNA levels by 50%, 2.2.15 cells, combinations: with respect to RF) was 38 nM. The EC90 ([4]; read-out: EC90, concentration necessary to decrease HBV DNA levels by 90%, 2.2.15 cells, combinations: with respect to RF) was 160 nM, the “SI (CC50/EC90), HBV Virion” value [4] was 11200 and the IC50 [31] was 1.79 mM.
